Measured values: ChEMBL document CHEMBL1201861, “Genomics of Drug Sensitity in Cancer screening data, Wellcome Trust Sanger Institute”

Legend:
Assay in all cases: cells
[1] = test system: NCI-H1395; format: functional, cell-based, Homo sapiens; details: Homo sapiens, NCI-H1395;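 also: cell viability assay read-out quantifying reduced proliferation of human NCI-H1395 cells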
Description: SANGER: Inhibition of human NCI-H1395 cell growth in a cell viability assay.

[2] = test system: HCC1187; format: functional, cell-based, Homo sapiens; details: Homo sapiens, HCC1187;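 also: growth inhibition of HCC1187 cells, read out with a cell viability assay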
Description: SANGER: Inhibition of human HCC1187 cell growth in a cell viability assay.

[3] = test system: LOX IMVI; format: functional, cell-based, Homo sapiens; details: Homo sapiens, LOX IMVI
Description: SANGER: Inhibition of human LOXIMVI cell growth in a cell viability assay.

[4] = test system: MPP-89; format: functional, cell-based, Homo sapiens; details: Homo sapiens, MPP-89;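 also: growth inhibition of human MPP-89 cells, read out with a cell viability assay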
Description: SANGER: Inhibition of human MPP-89 cell growth in a cell viability assay.

[5] = test system: NCI-H720; format: functional, cell-based, Homo sapiens; details: Homo sapiens, NCI-H720;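 also: growth inhibition of human NCI-H720 cells determined by a cell viability assay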
Description: SANGER: Inhibition of human NCI-H720 cell growth in a cell viability assay.

[6] = test system: RXF 393; format: functional, cell-based, Homo sapiens; details: Homo sapiens, RXF 393;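 also: growth inhibition of human RXF 393 cells, read out with a cell viability assay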
Description: SANGER: Inhibition of human RXF393 cell growth in a cell viability assay.

[7] = test system: NB5; format: functional, cell-based, Homo sapiens; details: Homo sapiens, NB5;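 also: growth inhibition of NB5 cells, read out as cell viability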
Description: SANGER: Inhibition of human NB5 cell growth in a cell viability assay.

[8] = test system: MOLT-4; format: functional, cell-based, Homo sapiens; details: Homo sapiens, MOLT-4;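 also: growth inhibition of MOLT-4 cells, determined with a cell viability readout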
Description: SANGER: Inhibition of human MOLT-4 cell growth in a cell viability assay.

[9] = test system: K562; format: functional, cell-based, Homo sapiens; details: Homo sapiens, K562
[10] = test system: NCI-H1092; format: functional, cell-based, Homo sapiens; details: Homo sapiens, NCI-H1092;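 also: cell growth inhibition measured with a cell viability assay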
Description: SANGER: Inhibition of human NCI-H1092 cell growth in a cell viability assay.

[11] = test system: BT-474; format: functional, cell-based, Homo sapiens; details: Homo sapiens, BT-474
Description: SANGER: Inhibition of human BT-474 cell growth in a cell viability assay.

[12] = test system: VA-ES-BJ; format: functional, cell-based, Homo sapiens; details: Homo sapiens, VA-ES-BJ;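 also: growth inhibition of the VA-ES-BJ cell line, read out by a cell viability assay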
Description: SANGER: Inhibition of human VA-ES-BJ cell growth in a cell viability assay.

[13] = test system: SW 954; format: functional, cell-based, Homo sapiens; details: Homo sapiens, SW 954;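 also: growth inhibition of SW954 human cancer cells, read out as cell viability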
Description: SANGER: Inhibition of human SW954 cell growth in a cell viability assay.

[14] = test system: HEL; format: functional, cell-based, Homo sapiens; details: Homo sapiens, HEL;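 also: growth inhibition of HEL cells, read out with a cell viability assay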
Description: SANGER: Inhibition of human HEL cell growth in a cell viability assay.

[15] = test system: HCE-4; format: functional, cell-based; details: Homo sapiens;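 also: cell viability assay measuring inhibition of growth in the human HCE-4 cell line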
Description: SANGER: Inhibition of human HCE-4 cell growth in a cell viability assay.

[16] = test system: NCI-H1355; format: functional, cell-based, Homo sapiens; details: Homo sapiens, NCI-H1355;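 also: growth inhibition of human NCI-H1355 cells, read out by a cell viability assay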
Description: SANGER: Inhibition of human NCI-H1355 cell growth in a cell viability assay.

[17] = test system: SK-LMS-1; format: functional, cell-based, Homo sapiens; details: Homo sapiens, SK-LMS-1;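 also: growth inhibition of human SK-LMS-1 cells, read out with a cell viability assay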
[18] = test system: EW-13; format: functional, cell-based, Homo sapiens; details: Homo sapiens, EW-13; read-out: IC50;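 also: growth inhibition of EW-13 cells, read out with a cell viability assay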
Description: SANGER: Inhibition of human EW-13 cell growth in a cell viability assay.

[19] = test system: COR-L88; format: functional, cell-based, Homo sapiens; details: Homo sapiens, COR-L88;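 also: growth inhibition of COR-L88 cells, read out with a cell viability assay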
Description: SANGER: Inhibition of human COR-L88 cell growth in a cell viability assay.

[20] = test system: NCI-H2126; format: functional, cell-based, Homo sapiens; details: Homo sapiens, NCI-H2126;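 also: growth inhibition of the cancer cell line, determined with a cell viability readout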
Description: SANGER: Inhibition of human NCI-H2126 cell growth in a cell viability assay.

[21] = test system: TE-12; format: functional, cell-based, Homo sapiens; details: Homo sapiens, TE-12;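 also: growth inhibition of TE-12 cells, read out by a cell viability assay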
Description: SANGER: Inhibition of human TE-12 cell growth in a cell viability assay.

[22] = test system: GCIY; format: functional, cell-based, Homo sapiens; details: Homo sapiens, GCIY;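 also: growth inhibition of the human GCIY cell line, read out by a cell viability assay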
Description: SANGER: Inhibition of human GCIY cell growth in a cell viability assay.

[23] = test system: MHH-NB-11; format: functional, cell-based, Homo sapiens; details: Homo sapiens, MHH-NB-11;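 also: growth inhibition of human MHH-NB-11 cells, read out by a cell viability assay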
Description: SANGER: Inhibition of human MHH-NB-11 cell growth in a cell viability assay.

[24] = test system: NCI-H226; format: functional, cell-based, Homo sapiens; details: Homo sapiens, NCI-H226;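 also: cell viability read-out used to gauge growth inhibition of the cells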
Description: SANGER: Inhibition of human NCI-H226 cell growth in a cell viability assay.

[25] = test system: ACN; format: functional, cell-based, Homo sapiens; details: Homo sapiens, ACN;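 also: growth inhibition of the human ACN cell line, read out via cell viability testing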
Description: SANGER: Inhibition of human ACN cell growth in a cell viability assay.

[26] = test system: ALL-PO; format: functional, cell-based, Homo sapiens; details: Homo sapiens, ALL-PO;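 also: growth inhibition of ALL-PO cells, read out by a cell viability assay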
Description: SANGER: Inhibition of human ALL-PO cell growth in a cell viability assay.

[27] = test system: ES1; format: functional, cell-based, Homo sapiens; details: Homo sapiens, ES1;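 also: growth inhibition of ES1 cells, read out with a cell viability assay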
[28] = test system: NCI-H1770; format: functional, cell-based, Homo sapiens; details: Homo sapiens, NCI-H1770;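 also: growth inhibition of NCI-H1770 cells determined with a viability readout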
Description: SANGER: Inhibition of human NCI-H1770 cell growth in a cell viability assay.

[29] = test system: A253 cell line; format: functional, cell-based, Homo sapiens; details: Homo sapiens, A253;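 also: growth inhibition of A253 cells, read out with a cell viability assay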
Description: SANGER: Inhibition of human A253 cell growth in a cell viability assay.

[30] = test system: KALS-1; format: functional, cell-based, Homo sapiens; details: Homo sapiens, KALS-1; read-out: IC50;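 also: growth inhibition of KALS-1 cells, determined with a cell viability assay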
Description: SANGER: Inhibition of human KALS-1 cell growth in a cell viability assay.

[31] = test system: MN-60; format: functional, cell-based, Homo sapiens; details: Homo sapiens, MN-60;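 also: growth inhibition of the MN-60 cell line, determined with a cell viability assay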
Description: SANGER: Inhibition of human MN-60 cell growth in a cell viability assay.

[32] = test system: IA-LM; format: functional, cell-based; details: Homo sapiens;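 also: cell viability assay measuring growth inhibition of human IA-LM cells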
Description: SANGER: Inhibition of human IA-LM cell growth in a cell viability assay.

[33] = test system: DJM-1; format: functional, cell-based, Homo sapiens; details: Homo sapiens, DJM-1;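 also: growth inhibition of human DJM-1 cells, read out by a cell viability assay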
[34] = test system: U-266; format: functional, cell-based, Homo sapiens; details: Homo sapiens, U-266
[35] = test system: IST-SL1; format: functional, cell-based, Homo sapiens; details: Homo sapiens, IST-SL1;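 also: growth inhibition of human IST-SL1 cells, read out with a cell viability assay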
Description: SANGER: Inhibition of human IST-SL1 cell growth in a cell viability assay.

[36] = test system: MV4-11; format: functional, cell-based, Homo sapiens, MV-4-11; details: Homo sapiens, MV4-11;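 also: cell viability readout measuring growth inhibition of human MV-4-11 cells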
Description: SANGER: Inhibition of human MV-4-11 cell growth in a cell viability assay.

[37] = test system: TE-8; format: functional, cell-based, Homo sapiens; details: Homo sapiens, TE-8;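 also: growth inhibition of TE-8 cells, measured with a cell viability readout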
Description: SANGER: Inhibition of human TE-8 cell growth in a cell viability assay.

[38] = test system: GI-ME-N; format: functional, cell-based, Homo sapiens; details: Homo sapiens, GI-ME-N;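 also: growth inhibition of human GI-ME-N cells, read out with a cell viability assay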
Description: SANGER: Inhibition of human GI-ME-N cell growth in a cell viability assay.

[39] = test system: EW-3; format: functional, cell-based, Homo sapiens; details: Homo sapiens, EW-3;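 also: cell viability assay read-out, IC50 reflects inhibition of growth of the EW-3 cells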
Description: SANGER: Inhibition of human EW-3 cell growth in a cell viability assay.

[40] = test system: OMC-1; format: functional, cell-based, Homo sapiens; details: Homo sapiens, OMC-1;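 also: growth inhibition of the OMC-1 cell line, measured by a cell viability assay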
[41] = test system: P30-OHK; format: functional, cell-based, Homo sapiens; details: Homo sapiens, P30-OHK;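 also: growth inhibition of the P30-OHK cell line, read out with a cell viability assay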
Description: SANGER: Inhibition of human P30-OHK cell growth in a cell viability assay.

[42] = test system: BE-13; format: functional, cell-based, Homo sapiens; details: Homo sapiens, BE-13;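 also: growth inhibition of human BE-13 cells, measured with a cell viability assay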
Description: SANGER: Inhibition of human BE-13 cell growth in a cell viability assay.

[43] = test system: SK-MEL-2; format: functional, cell-based, Homo sapiens; details: Homo sapiens, SK-MEL-2;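 also: growth inhibition of human SK-MEL-2 cells measured with a cell viability assay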
Description: SANGER: Inhibition of human SK-MEL-2 cell growth in a cell viability assay.

[44] = test system: SK-N-DZ; format: functional, cell-based, Homo sapiens; details: Homo sapiens, SK-N-DZ; read-out: IC50;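 also: growth inhibition of the cancer cell line, read out through a viability assay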
Description: SANGER: Inhibition of human SK-N-DZ cell growth in a cell viability assay.

[45] = test system: NCI-H446; format: functional, cell-based, Homo sapiens; details: Homo sapiens, NCI-H446;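 also: growth inhibition of NCI-H446 cells determined by a cell viability assay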
Description: SANGER: Inhibition of human NCI-H446 cell growth in a cell viability assay.

[46] = test system: NB10; format: functional, cell-based, Homo sapiens; details: Homo sapiens, NB10;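 also: growth inhibition of NB10 cells, read out by a cell viability assay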
Description: SANGER: Inhibition of human NB10 cell growth in a cell viability assay.

[47] = test system: NCI-H1648; format: functional, cell-based, Homo sapiens; details: Homo sapiens, NCI-H1648;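 also: cell viability assay measuring inhibition of NCI-H1648 cell growth, from the Sanger screening data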
Description: SANGER: Inhibition of human NCI-H1648 cell growth in a cell viability assay.

[48] = test system: Calu-6; format: functional, cell-based, Homo sapiens; details: Homo sapiens, Calu-6;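 also: growth of human Calu-6 cells, read out by a cell viability assay, IC50 marking inhibition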
Description: SANGER: Inhibition of human Calu-6 cell growth in a cell viability assay.

[49] = test system: CGTH-W-1; format: functional, cell-based, Homo sapiens; details: Homo sapiens, CGTH-W-1;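 also: growth inhibition of human CGTH-W-1 cells measured by cell viability assay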
Description: SANGER: Inhibition of human CGTH-W-1 cell growth in a cell viability assay.

Compound: Cc1cc(N2CCOCC2)cc2[nH]c(-c3c(NC[C@@H](O)c4cccc(Cl)c4)cc[nH]c3=O)nc12
- IC50 [1]: > 5.12 µM
- IC50 [2]: > 5.12 µM
- IC50 [3]: > 5.12 µM
- IC50 [4]: 3.5 µM
- IC50 [5]: > 5.12 µM
- IC50 [6]: 1.3 µM
- IC50 [7]: 1.11 µM
- IC50 [8]: 4.58 µM
- IC50 [9]: > 5.12 µM
- IC50 [10]: > 5.12 µM
- IC50 [11]: > 5.12 µM
- IC50 [12]: > 5.12 µM
- IC50 [13]: 0.49 µM
- IC50 [14]: 1.9 µM
- IC50 [15]: > 5.12 µM
- IC50 [16]: 0.553 µM
- IC50 [17]: 4.81 µM
- IC50 [18]: > 5.12 µM
- IC50 [19]: > 5.12 µM
- IC50 [20]: 3.98 µM
- IC50 [21]: 0.176 µM
- IC50 [22]: 0.404 µM
- IC50 [23]: > 5.12 µM
- IC50 [24]: > 5.12 µM
- IC50 [25]: 1.98 µM
- IC50 [26]: 0.373 µM
- IC50 [27]: 1.62 µM
- IC50 [28]: > 5.12 µM
- IC50 [29]: > 5.12 µM
- IC50 [30]: > 5.12 µM
- IC50 [31]: > 5.12 µM
- IC50 [32]: > 5.12 µM
- IC50 [33]: > 5.12 µM
- IC50 [34]: > 5.12 µM
- IC50 [35]: > 5.12 µM
- IC50 [36]: 0.206 µM
- IC50 [37]: 0.506 µM
- IC50 [38]: 2.06 µM
- IC50 [39]: 4.76 µM
- IC50 [40]: > 5.12 µM
- IC50 [41]: > 5.12 µM
- IC50 [42]: > 5.12 µM
- IC50 [43]: > 5.12 µM
- IC50 [44]: 2.11 µM
- IC50 [45]: > 5.12 µM
- IC50 [46]: > 5.12 µM
- IC50 [47]: 0.19 µM
- IC50 [48]: > 5.12 µM
- IC50 [49]: > 5.12 µM

Compound: C[C@@H](Oc1cc(-c2cnn(C3CCNCC3)c2)cnc1N)c1c(Cl)ccc(F)c1Cl [CRIZOTINIB]
- IC50 [1]: > 2 µM
- IC50 [2]: > 2 µM
- IC50 [3]: > 2 µM
- IC50 [4]: > 2 µM
- IC50 [5]: > 2 µM
- IC50 [6]: > 2 µM
- IC50 [7]: > 2 µM
- IC50 [8]: > 2 µM
- IC50 [9]: 1.72 µM
- IC50 [10]: > 2 µM
- IC50 [11]: > 2 µM
- IC50 [12]: > 2 µM
- IC50 [13]: > 2 µM
- IC50 [14]: > 2 µM
- IC50 [15]: > 2 µM
- IC50 [16]: > 2 µM
- IC50 [17]: 1.77 µM
- IC50 [18]: > 2 µM
- IC50 [19]: > 2 µM
- IC50 [20]: > 2 µM
- IC50 [21]: > 2 µM
- IC50 [22]: > 2 µM
- IC50 [23]: > 2 µM
- IC50 [24]: > 2 µM
- IC50 [25]: > 2 µM
- IC50 [26]: > 2 µM
- IC50 [27]: > 2 µM
- IC50 [28]: > 2 µM
- IC50 [29]: > 2 µM
- IC50 [30]: > 2 µM
- IC50 [31]: > 2 µM
- IC50 [32]: > 2 µM
- IC50 [33]: > 2 µM
- IC50 [34]: > 2 µM
- IC50 [35]: > 2 µM
- IC50 [36]: > 2 µM
- IC50 [37]: > 2 µM
- IC50 [38]: > 2 µM
- IC50 [39]: > 2 µM
- IC50 [40]: > 2 µM
- IC50 [41]: > 2 µM
- IC50 [42]: > 2 µM
- IC50 [43]: > 2 µM
- IC50 [44]: > 2 µM
- IC50 [45]: > 2 µM
- IC50 [46]: > 2 µM
- IC50 [47]: > 2 µM
- IC50 [48]: > 2 µM
- IC50 [49]: > 2 µM

Compound: Cc1ccc(-n2nc(C(C)(C)C)cc2NC(=O)Nc2ccc(OCCN3CCOCC3)c3ccccc23)cc1 [DORAMAPIMOD]
- IC50 [1]: > 10 µM
- IC50 [2]: > 10 µM
- IC50 [3]: > 10 µM
- IC50 [4]: 8.46 µM
- IC50 [5]: > 10 µM
- IC50 [6]: > 10 µM
- IC50 [7]: > 10 µM
- IC50 [8]: > 10 µM
- IC50 [9]: > 10 µM
- IC50 [10]: > 10 µM
- IC50 [11]: > 10 µM
- IC50 [12]: > 10 µM
- IC50 [13]: > 10 µM
- IC50 [14]: > 10 µM
- IC50 [15]: > 10 µM
- IC50 [16]: > 10 µM
- IC50 [17]: > 10 µM
- IC50 [18]: > 10 µM
- IC50 [19]: > 10 µM
- IC50 [20]: > 10 µM
- IC50 [21]: > 10 µM
- IC50 [22]: > 10 µM
- IC50 [23]: > 10 µM
- IC50 [24]: > 10 µM
- IC50 [25]: > 10 µM
- IC50 [26]: > 10 µM
- IC50 [27]: > 10 µM
- IC50 [28]: > 10 µM
- IC50 [29]: > 10 µM
- IC50 [30]: > 10 µM
- IC50 [31]: > 10 µM
- IC50 [32]: > 10 µM
- IC50 [33]: > 10 µM
- IC50 [34]: > 10 µM
- IC50 [35]: > 10 µM
- IC50 [36]: > 10 µM
- IC50 [37]: > 10 µM
- IC50 [38]: > 10 µM
- IC50 [39]: > 10 µM
- IC50 [40]: > 10 µM
- IC50 [41]: > 10 µM
- IC50 [42]: > 10 µM
- IC50 [43]: > 10 µM
- IC50 [44]: > 10 µM
- IC50 [45]: > 10 µM
- IC50 [46]: > 10 µM
- IC50 [47]: > 10 µM
- IC50 [48]: > 10 µM
- IC50 [49]: > 10 µM
